System: longitudinal muscle with adherent myenteric plexus preparation
Experiment: Gastrointestinal motility promoting action: increase of electrically induced twitch response of isolated guinea pig ileum
Type: cell-based, guinea pigs
Details: compound at 10⁻⁵ M, transmural electrical stimulation (1 msec, 0.1 Hz)
Method: The gastrointestinal motility promoting action of the present compounds was tested by the following method.
Ileum was excised from guinea pigs to prepare longitudinal muscle with adherent myenteric plexus preparation (approximately 2 cm length). The preparation suspended in organ bath containing Krebs-Henselite solution aerated with a mixed gas (5% CO₂, 95% O₂) were subjected to transmural electrical stimulation (1 msec, 0.1 Hz). Consistent twitch response induced by electrical stimulation and increase of twitch response induced by compound were recorded with an isometric transducer. The compounds were dissolved in distilled water or DMSO and tested at concentration of 10⁻⁵ M. The result is shown in terms of percent increase (%) in the contraction height by the electrical stimulation after administration of the compound relative to the contraction height before administration of the compound. Compound of Example 10 16.1% Compound of Example 29 22.4%

| Structure (SMILES) | percent increase (%) in the contraction height by the electrical stimulation after administration of the compound relative to the contraction height before administration of the compound [%] |
| --- | --- |
| CC(C)=CCn1nc(C(=O)NC2CC3COCC(C2)N3Cc2ccc(F)cc2)c2ccccc21 (stereo not drawn) [Example 10, N-[endo-9-(p-fluorobenzyl)-3-oxa-9-azabicyclo[3.3.1]non-7-yl]-1-(3-methyl-2-butenyl)indazole-3-carboxamide] | 16.1 |
| COc1cc(N)c(Cl)cc1C(=O)NC1CC2COCC(C1)N2Cc1ccc(F)cc1 (stereo not drawn) [Example 29, N-[endo-9-(p-fluorobenzyl)-3-oxa-9-azabicyclo[3.3.1]non-7-yl]-4-amino-5-chloro-2-methoxybenzamide] | 22.4 |

Reference: patent publication EP0623621A1, “Oxazabicyclo derivatives and their use as 5-HT4 receptor agonists” (NISSHIN FLOUR MILLING CO., LTD., priority 1993, dated 1994)
